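Test compounds were applied to cells in 96-well plates for 48 hours at 5 doses. At the GI50, growth is halved.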 Calls of active or inactive are those of the source. Cut-off read from the data, not from the text of the source: active = GI50 up to about 1.1 µM and inactive = higher.
Experiments:
Assay in all cases: DTP human tumour cell line panel, 48 h
MOLT-4 = test system: MOLT-4
MDA-MB-435 = test system: MDA-MB-435
ACHN = test system: ACHN
HOP-62 = test system: HOP-62
Malme-3M = test system: Malme-3M
SK-MEL-5 = test system: SK-MEL-5
OVCAR-5 = test system: OVCAR-5
HOP-92 = test system: HOP-92
OVCAR-8 = test system: OVCAR-8
NCI-H522 = test system: NCI-H522
Hs-578T = test system: Hs-578T
HT-29 = test system: HT-29
U-251 = test system: U-251
MCF7 = test system: MCF7
MDA-MB-231 = test system: MDA-MB-231
SF-268 = test system: SF-268
NCI-H226 = test system: NCI-H226
NCI-H460 = test system: NCI-H460
M14 = test system: M14
UACC-257 = test system: UACC-257
KM12 = test system: KM12
SK-MEL-28 = test system: SK-MEL-28
SW-620 = test system: SW-620
SK-MEL-2 = test system: SK-MEL-2
786-0 = test system: 786-0
RXF 393 = test system: RXF 393
UACC-62 = test system: UACC-62
IGROV-1 = test system: IGROV-1
SF-295 = test system: SF-295
OVCAR-3 = test system: OVCAR-3
SR = test system: SR
A498 = test system: A498
SNB-19 = test system: SNB-19
RPMI-8226 = test system: RPMI-8226
EKVX = test system: EKVX
A549 = test system: A549
NCI-H23 = test system: NCI-H23
NCI/ADR-RES = test system: NCI/ADR-RES
COLO 205 = test system: COLO 205
BT-549 = test system: BT-549
HCT-15 = test system: HCT-15
SN12C = test system: SN12C
DU-145 = test system: DU-145
LOX IMVI = test system: LOX IMVI
HCT-116 = test system: HCT-116
CAKI-1 = test system: CAKI-1
SK-OV-3 = test system: SK-OV-3
CCRF-CEM = test system: CCRF-CEM
K562 = test system: K562
OVCAR-4 = test system: OVCAR-4
PC-3 = test system: PC-3
UO-31 = test system: UO-31
TK-10 = test system: TK-10
MDA-N = test system: MDA-N
T47D = test system: T47D
HL-60 = test system: HL-60
SNB-75 = test system: SNB-75
HCC 2998 = test system: HCC 2998
SF-539 = test system: SF-539

Measured: GI50

O=C(Cn1ccc(=O)[nH]c1=O)Nc1ccc(C(=O)O)c(O)c1
> 100 µM: HCT-15
active: SK-OV-3 < 0.01 µM
inactive: MOLT-4 > 100 µM | MDA-MB-435 > 100 µM | ACHN > 100 µM | HOP-62 26.2 µM | Malme-3M > 100 µM | SK-MEL-5 > 100 µM | OVCAR-5 > 100 µM | HOP-92 > 100 µM | OVCAR-8 > 100 µM | NCI-H522 > 100 µM | Hs-578T > 100 µM | HT-29 > 100 µM | U-251 > 100 µM | MCF7 > 100 µM | MDA-MB-231 > 100 µM | SF-268 > 100 µM | NCI-H226 > 100 µM | NCI-H460 > 100 µM | M14 > 100 µM | UACC-257 > 100 µM | KM12 > 100 µM | SK-MEL-28 > 100 µM | SW-620 > 100 µM | SK-MEL-2 > 100 µM | 786-0 > 100 µM | RXF 393 > 100 µM | UACC-62 > 100 µM | IGROV-1 > 100 µM | SF-295 18.2 µM | OVCAR-3 > 100 µM | SR > 100 µM | A498 > 100 µM | SNB-19 > 100 µM | RPMI-8226 > 100 µM | EKVX > 100 µM | A549 > 100 µM | NCI-H23 > 100 µM | NCI/ADR-RES > 100 µM | COLO 205 > 100 µM | BT-549 > 100 µM | SN12C > 100 µM | DU-145 > 100 µM | LOX IMVI > 100 µM | HCT-116 > 100 µM | CAKI-1 > 100 µM | CCRF-CEM > 100 µM | K562 > 100 µM | OVCAR-4 > 100 µM | PC-3 > 100 µM | UO-31 > 100 µM | TK-10 > 100 µM | MDA-N > 100 µM | T47D > 100 µM | HL-60 > 100 µM | SNB-75 > 100 µM

N#Cc1ccc(OCc2ccc3nc(-c4ccccc4)c(Cl)nc3c2)cc1
inactive: MOLT-4 > 100 µM | MDA-MB-435 > 100 µM | ACHN 43.6 µM | HOP-62 42.7 µM | Malme-3M > 100 µM | SK-MEL-5 > 100 µM | OVCAR-5 > 100 µM | HOP-92 > 100 µM | OVCAR-8 > 100 µM | NCI-H522 > 100 µM | Hs-578T > 100 µM | HT-29 > 100 µM | U-251 72.1 µM | MCF7 > 100 µM | MDA-MB-231 > 100 µM | SF-268 > 100 µM | NCI-H460 > 100 µM | M14 > 100 µM | UACC-257 > 100 µM | KM12 > 100 µM | SK-MEL-28 > 100 µM | SW-620 > 100 µM | SK-MEL-2 > 100 µM | 786-0 54 µM | UACC-62 > 100 µM | IGROV-1 > 100 µM | SF-295 > 100 µM | OVCAR-3 > 100 µM | SR > 100 µM | A498 > 100 µM | SNB-19 > 100 µM | RPMI-8226 > 100 µM | EKVX > 100 µM | A549 > 100 µM | HCC 2998 > 100 µM | NCI-H23 > 100 µM | NCI/ADR-RES > 100 µM | COLO 205 > 100 µM | BT-549 > 100 µM | SF-539 > 100 µM | SN12C > 100 µM | DU-145 > 100 µM | LOX IMVI > 100 µM | HCT-116 > 100 µM | CAKI-1 > 100 µM | CCRF-CEM > 100 µM | OVCAR-4 > 100 µM | PC-3 > 100 µM | UO-31 > 100 µM | TK-10 58.1 µM | MDA-N > 100 µM | T47D > 100 µM | HL-60 > 100 µM | SNB-75 > 100 µM
> 100 µM: HCT-15

Cc1nc2[nH]ccn2c(=O)c1CCO
inactive: MOLT-4 > 10 µM | MDA-MB-435 > 10 µM | ACHN > 10 µM | HOP-62 > 10 µM | Malme-3M > 10 µM | SK-MEL-5 > 10 µM | OVCAR-5 > 10 µM | HOP-92 > 10 µM | OVCAR-8 > 10 µM | Hs-578T > 10 µM | HT-29 > 10 µM | U-251 > 10 µM | MCF7 > 10 µM | MDA-MB-231 > 10 µM | SF-268 > 10 µM | NCI-H226 > 10 µM | NCI-H460 > 10 µM | M14 > 10 µM | UACC-257 > 10 µM | KM12 > 10 µM | SK-MEL-28 > 10 µM | SW-620 > 10 µM | 786-0 > 10 µM | RXF 393 > 10 µM | UACC-62 > 10 µM | IGROV-1 > 10 µM | SF-295 > 10 µM | OVCAR-3 > 10 µM | SR > 10 µM | A498 > 10 µM | SNB-19 > 10 µM | RPMI-8226 > 10 µM | EKVX > 10 µM | A549 > 10 µM | NCI-H23 > 10 µM | NCI/ADR-RES > 10 µM | COLO 205 > 10 µM | BT-549 > 10 µM | SF-539 > 10 µM | SN12C > 10 µM | DU-145 > 10 µM | LOX IMVI > 10 µM | HCT-116 > 10 µM | CAKI-1 > 10 µM | SK-OV-3 > 10 µM | CCRF-CEM > 10 µM | K562 > 10 µM | OVCAR-4 > 10 µM | PC-3 > 10 µM | UO-31 > 10 µM | TK-10 > 10 µM | MDA-N > 10 µM | T47D > 10 µM | HL-60 > 10 µM | SNB-75 > 10 µM
> 10 µM: HCT-15
